# Assay results: patent publication US20050143472A1, “Novel treatment for pathologies associated with oxidative damage” (priority 2002, published 2005)
# Entries after “also recorded” stand apart in the source; their conditions may differ. Where two headings read alike, the source gives them in different places.
# Assays:
# mPAO [1] = target: T1, mPAO (Mus musculus, UniProt Q8C0L6); assay: Steady-state kinetic spectrophotometric assay of mPAO (H2O2 formation); type: biochemical, murine; conditions: for kcat′ / KS′: apparent value; for kcat′: air-saturated 50 mM KH2PO4/KOH buffer pH 7.6, [O2] 237 μM; for KS′: air-saturated buffer pH 7.6, [O2] 237 μM; for inhibitor of mPAO (oxidation of N^1-acetyl-Spm) / substrate for mPAO (oxidation by mPAO): in words; for kcat′/KS′: specificity constant, air-saturated buffer pH 7.6
# T1 construct: the full length cDNA of mpao was released by Nde I and Hind III treatment, and ligated into Nde I and Hind III sites of pET29c; made in house; host or cells: E. coli BL21 GOLD (DE3), plasmid pET-MPAO (pET29c)
# Description: In this example the methods used to examine mPAO steady state kinetics are described. Spectrophotometric assays were done at 30° C. in a potassium phosphate buffer (e.g., 50 mM KH2PO4/KOH buffer, pH 7.6 saturated in air or in pure oxygen), using a published procedure which provides a continuous monitor of the H2O2 produced (Holt et al., Anal. Biochem. 244:384-392 [1997]). These assays were done in 1 mL cuvette with 0.8 mL of solution containing varying amounts of substrate, 1 mM vanillic acid, 0.5 mM 4-aminopyrine, 4 units of horseradish peroxidase, and 0.1-0.2 μg of mPAO. The reactions were monitored at 498 nm with a UVIKON 840 spectrophotometer (KONTRON Instruments) for the formation of the quinoneimine dye (ε498=4,650 M^−1cm^−1 at pH 7.6), the condensation product of vanillic acid and oxidized 4-aminopyrine. The latter is produced from 4-aminopyrine by the action of horseradish peroxidase that has been oxidized by H2O2 (Holt et al., supra [1997]). The assays were done at 25° C. by varying the concentration of the amine substrate, while the oxygen concentration in the assay solution was constant at the air-saturating level of 237 μM. The data were fit, by nonlinear regression to steady-state kinetic equations (McIntire et al., Biochem. J. 228:325-335 [1985]), which provided the values, and standard deviations thereof, for kcat′, KS′ and kcat′/KS′ (=Q, the specificity constant). [formula]
# The dissociation constants, KD, for these and other amines were estimated in the following manner. It was assumed that the competition was competitive, since in the presence of the inhibitors, at a saturating N^1-acetyl-Spm concentration, the rate of the reaction was equal to the value of the true kcat. It was also assumed that the mechanism is of the ping-pong type. Thus, the applicable steady-state equation is (Segal, Enzyme Kinetics, John Wiley & Sons, New York, pp. 606-625 [1975]): [formula]
# On the left, kcat and KS are the steady-state parameters for N^1-acetyl-Spm (S), and I and KI (=KD), represent the inhibitor and its inhibition constant, respectively. KIO and KO are the inhibition constant and Michaelis constant for O2, respectively. The equation can be converted to the expression on the right side when: [formula]
# The expressions for kcat′ and KS′ (at the fixed [O2]=[…]) are the same as those when the inhibitor is absent. Since the values of kcat′ and KS″ were predetermined, inhibition assays were carried out where [S]≈KS″, which, in the absence of I, would give a rate, ν≈0.5×kcat″. In these assay, for each inhibitor, [I] was adjusted so the apparent rate was somewhat less then 0.5 kcat′. In this situation, after substitution and rearrangement, Equation 1 reduces to: [formula]
# Since [I] and kcat′ are known, and ν is the measured rate in the presence of the inhibitor, the value of KI′ can be estimated. It is assumed that these apparent KI′ are good approximations of the true KI (=KD) values. […] The estimated KI′ values provided in Table 1, are the averages of these four values. If the reactions of the polyamine substrates and O2 with mPAO obeys a ping-pong type mechanism, the apparent values, kcat′/KS′, are equal to the true kcat/KS values.
# mPAO [2] = target: T1, mPAO; assay: Oxygraph assay of O2 consumption, progress-curve analysis; type: biochemical, murine; conditions: progress curves before and after catalase addition
# Description: Some assays (oxygraph assays) were carried out by directly monitoring O2 consumption in air-saturated buffer ([O2]=0.237 mM) or buffer saturated with pure O2 at 30° C. ([O2]=1.12 mM). The depletion of O2 was detected with a Yellow Springs Instruments, Inc. Model 53 Oxygen Monitor equipped with a Clark electrode. […] Following a published procedure (Goudar et al., Biochim. Biophys. Acta 1429:377-383 [1999]), the data were fitted to the integrated Mechaelis-Menton equation. The analyses were done using Maple VI (Windows 2000) software (Waterloo Maple, Inc.) running on a PC computer. […] Inhibition by the H2O2, formed as a product of polyamine oxidation by mPAO, was assessed by addition of 2 μL of a 30 mg/mL (30,000 units/mg) solution of catalase, after [O2] reached zero.
# The catalase immediately converted each mole of H2O2 to 0.5 mol of O2 (since [O2]=1.12 mM for pure O2-saturated buffer, then [O2]=0.56 mM immediately after catalase addition). In the presence of catalase, O2 depletion should occur at 0.5× the rate as it does in the absence of catalase (unless H2O2 inhibition is operating). With catalase present, each molecule of O2 will be converted eventually to H2O (4-electron equivalents), rather than to H2O2 (2-electron equivalents).
# [3] = apparent, inhibition of N^1-acetyl-Spm oxidation, average of four inhibitor concentrations, read-out: KI′ = KD
# T1 sequence (Q8C0L6 whole entry E184K/L285S/R416L/R417S/Q419R/E451A/V490I/S491G/V497A): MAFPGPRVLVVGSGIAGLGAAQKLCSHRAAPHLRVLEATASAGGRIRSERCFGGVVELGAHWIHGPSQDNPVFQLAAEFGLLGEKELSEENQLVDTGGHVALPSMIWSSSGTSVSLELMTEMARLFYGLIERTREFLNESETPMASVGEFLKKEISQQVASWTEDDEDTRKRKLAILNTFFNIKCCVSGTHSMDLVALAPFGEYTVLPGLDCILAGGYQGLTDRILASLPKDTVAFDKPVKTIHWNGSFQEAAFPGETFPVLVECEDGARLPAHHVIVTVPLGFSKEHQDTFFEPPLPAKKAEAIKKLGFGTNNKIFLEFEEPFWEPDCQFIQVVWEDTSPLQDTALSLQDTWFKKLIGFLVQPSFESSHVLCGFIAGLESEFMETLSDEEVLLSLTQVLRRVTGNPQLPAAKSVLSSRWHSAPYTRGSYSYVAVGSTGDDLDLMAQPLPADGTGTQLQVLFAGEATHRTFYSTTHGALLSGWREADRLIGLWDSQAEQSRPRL
SMILES,kcat′ (mPAO [1]) [s⁻¹],KS′ (mPAO [1]) [µM],inhibitor of mPAO (oxidation of N^1-acetyl-Spm) (mPAO [1]),kcat′/KS′ (mPAO [1]),Ki (mPAO [1]; [3]) [µM],"substrate for mPAO (oxidation by mPAO) (mPAO [1]; listed as N-(3-Aminopropyl)-1,10-diaminodecane)","substrate for mPAO (oxidation by mPAO) (mPAO [1]; listed as N-(3-aminopropyl)-1,10-diaminodecane)","KI′ = KD (mPAO [1]; apparent, inhibition of N^1-acetyl-Spm oxidation, average of four inhibitor concentrations)",Ki (mPAO [1]) [µM],substrate for mPAO (oxidation by mPAO) (mPAO [1]),inhibition of mPAO by product H2O2 (mPAO [2])
"N=C(N)NCCCCCCCCCCNC(=N)N [synthalin, 1,10-bisguanidinodecane]",0,0,extremely potent inhibitor of mPAO,0 M⁻¹ s⁻¹,,,,,0.05,,
"NCCCCNCCCN [Spd, spermidine]",0,0,inhibitors,0 M⁻¹ s⁻¹,190,,,,,poor substrates for mPAO,
"CCNCCCNCCCCNCCCNCC [N^1,N^12-diethyl-Spm, N^1,N^12-bis[ethyl]spermine]",0.415 ± 0.012,150 ± 10,,(2.77 ± 0.13) × 10^3 M^−1sec^−1,,,,,,very good substrates,
"OO [H2O2, hydrogen peroxide]",,,,,,,,,,,inhibition does not occur
NCc1ccccc1 [benzylamine],0,0,not,0 M⁻¹ s⁻¹,,,,∞ (infinity),,,

# Further lines, with some results ahead:
kcat′ (mPAO [1]) [s⁻¹],KS′ (mPAO [1]) [µM],inhibitor of mPAO (oxidation of N^1-acetyl-Spm) (mPAO [1]),kcat′/KS′ (mPAO [1]),Ki (mPAO [1]; [3]) [µM],"substrate for mPAO (oxidation by mPAO) (mPAO [1]; listed as N-(3-Aminopropyl)-1,10-diaminodecane)","substrate for mPAO (oxidation by mPAO) (mPAO [1]; listed as N-(3-aminopropyl)-1,10-diaminodecane)","KI′ = KD (mPAO [1]; apparent, inhibition of N^1-acetyl-Spm oxidation, average of four inhibitor concentrations)",SMILES,Ki (mPAO [1]) [µM],substrate for mPAO (oxidation by mPAO) (mPAO [1]),inhibition of mPAO by product H2O2 (mPAO [2])
,716 ± 33,inhibitors,,750,,,,"NCCCNCCCCNCCCN [Spm, spermine]",,poor mPAO substrate; also recorded: poor substrates for mPAO,
1.93 ± 0.03,157 ± 7,,(1.27 ± 0.03) × 10^4 M^−1sec^−1,,,,,"CCNCCCNCCCNCCCNCC [N^1,N^11-diethyl-nor-Spm, N^1,N^11-bis[ethyl]norspermine]",,very good substrates,
0,0,inhibitors,0 M⁻¹ s⁻¹,1000,,,,"NCCCCN [Put, putrescine]",,,
0,,good inhibitor of mPAO,0 M⁻¹ s⁻¹,35,not oxidized by mPAO,not to be a PAO substrate,,"NCCCCCCCCCCNCCCN [N-(3-aminopropyl) 1,10 decanediamine, N-(3-Aminopropyl)-1,10-diaminodecane]",,,
0,0,,0 M⁻¹ s⁻¹,70,,,,CC(=O)NCCCCNCCCN [N^8-acetyl-Spd],,not oxidized by mPAO,
